According to patent US12540118B2, “Dendrene amide compound, bactericide and use thereof” (Jiangsu Flag Chemical Industry Co., Ltd., priority 2020, dated 2026):

Columns and labels:
succinate dehydrogenase = target: T1, succinate dehydrogenase (Sus scrofa, UniProt A5GZW8+D0VWV4+Q007T0); assay: Enzyme activity assay, succinate dehydrogenase (DCIP reduction); format: biochemical, porcine; details: read-out: Inhibitors (10 μM, SQR)
T1 construct: isolated from porcine hearts; from tissue; host or cells: porcine heart
T1 sequence (Q0QF01 43-664 partner): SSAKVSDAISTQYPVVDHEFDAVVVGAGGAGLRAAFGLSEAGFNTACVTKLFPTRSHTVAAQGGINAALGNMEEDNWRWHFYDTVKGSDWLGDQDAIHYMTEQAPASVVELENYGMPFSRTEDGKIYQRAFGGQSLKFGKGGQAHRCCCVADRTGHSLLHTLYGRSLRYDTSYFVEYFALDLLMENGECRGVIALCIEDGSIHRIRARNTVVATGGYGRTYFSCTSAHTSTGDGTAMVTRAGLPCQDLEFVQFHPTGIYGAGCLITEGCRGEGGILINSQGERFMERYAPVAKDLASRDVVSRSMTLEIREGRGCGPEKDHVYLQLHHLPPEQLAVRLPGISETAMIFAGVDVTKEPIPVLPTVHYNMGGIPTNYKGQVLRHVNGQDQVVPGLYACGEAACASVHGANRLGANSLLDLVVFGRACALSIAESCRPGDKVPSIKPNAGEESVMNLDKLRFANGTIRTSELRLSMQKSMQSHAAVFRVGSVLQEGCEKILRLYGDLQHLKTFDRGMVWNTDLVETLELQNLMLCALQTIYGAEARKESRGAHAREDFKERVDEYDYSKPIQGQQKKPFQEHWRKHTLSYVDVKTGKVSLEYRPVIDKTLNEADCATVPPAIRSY
T1 sequence (Q007T0 29-280): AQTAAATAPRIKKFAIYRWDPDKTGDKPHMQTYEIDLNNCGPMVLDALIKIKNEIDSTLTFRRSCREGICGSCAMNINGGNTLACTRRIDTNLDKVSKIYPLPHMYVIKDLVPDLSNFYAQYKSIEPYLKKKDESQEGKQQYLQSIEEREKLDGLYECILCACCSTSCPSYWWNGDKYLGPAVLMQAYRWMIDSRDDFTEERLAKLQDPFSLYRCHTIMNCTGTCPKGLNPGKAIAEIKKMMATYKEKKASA
T1 sequence (D0VWV4 30-169): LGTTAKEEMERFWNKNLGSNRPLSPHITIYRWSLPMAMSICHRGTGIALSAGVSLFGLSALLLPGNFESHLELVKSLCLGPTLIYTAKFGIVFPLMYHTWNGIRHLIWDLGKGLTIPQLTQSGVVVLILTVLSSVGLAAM
T1 sequence (A5GZW8 57-159 limits assumed): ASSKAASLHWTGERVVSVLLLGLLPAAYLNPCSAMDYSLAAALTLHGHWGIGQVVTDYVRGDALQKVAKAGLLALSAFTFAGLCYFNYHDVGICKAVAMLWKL
Summary of the method: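 Porcine heart succinate dehydrogenase (2 nM) in 100 mM sodium phosphate pH 7.4, 0.3 mM EDTA, 20 mM sodium succinate and 53 μM DCIP at 23° C with stirring. DCIP reduction followed at 600 nm (ε 21 mM^−1 cm^−1); linear slope minus baseline gives initial rate.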

Erysiphe graminis = Erysiphe graminis potting method; format: in vivo; details: Blumeria graminis; 100 mg/L; read-out: Erysiphe graminis control rating
Experimental: The fungicidal activity of the control agents and target compounds are determined. The test and investigation method refers to SOP-SC-1116 Erysiphe graminis potting method in disinfectant rolls written by KANGZHUO and GUBAOGEN in “Standard operation specification for testing biological activity of pesticides”.

Sphaerotheca fuliginea = Sphaerotheca fuliginea potting method; format: in vivo; details: Podosphaera fuliginea; 100 mg/L; read-out: Sphaerotheca fuliginea control rating
Experimental: The fungicidal activity of the control agents and target compounds are determined. The test and investigation method refers to SOP-SC-1101 sphaerotheca fuliginea potting method in disinfectant rolls written by KANGZHUO and GUBAOGEN in “Standard operation specification for testing biological activity of pesticides”.

| inhibition at 10 µM (succinate dehydrogenase) | SMILES | pest or weed control at 100 µg/mL (Erysiphe graminis) | pest or weed control at 100 µg/mL (Sphaerotheca fuliginea) |
| --- | --- | --- | --- |
| > 90% | CC(C(=C(Cl)Cl)c1c(Cl)cccc1Cl)N(C(=O)c1c(C(F)F)nn(C)c1F)C1CC1 (stereo not drawn) [Compound 172] | 80 to 100% | 80 to 100% |
| > 90% | Cc1ccc(C(C)C)c(C(=C(Cl)Cl)C(C)N(C(=O)c2c(C(F)F)nn(C)c2F)C2CC2)c1 (stereo not drawn) [Compound 198] | 80 to 100% | 80 to 100% |
| > 90% | Cc1ccc(C(C)C)c(C(CN(C(=O)c2c(C(F)F)nn(C)c2F)C2CC2)=C(Cl)Cl)c1 [Compound 145] | 80 to 100% | 80 to 100% |
| > 90% | CC(C(=C(Cl)Cl)c1ccc(Cl)cc1F)N(C(=O)c1c(C(F)F)nn(C)c1F)C1CC1 (stereo not drawn) [Compound 206] | 80 to 100% | 80 to 100% |
| > 90% | C=C(c1cccc(F)c1)C(C)N(C(=O)c1c(C(F)F)nn(C)c1F)C1CC1 (stereo not drawn) [Compound 56] | 80 to 100% | 80 to 100% |
| > 90% | Cc1ccc(C)c(C(CN(C(=O)c2c(C(F)F)nn(C)c2F)C2CC2)=C(Cl)Cl)c1 [Compound 141] | 80 to 100% | 80 to 100% |
| > 90% | CC(C(=C(Cl)Cl)c1ccc(Cl)c(Cl)c1)N(C(=O)c1c(C(F)F)nn(C)c1F)C1CC1 (stereo not drawn) [Compound 173] | 80 to 100% | 80 to 100% |
| > 90% | C=C(c1cc(C)ccc1C(C)C)C(C)N(C(=O)c1c(C(F)F)nn(C)c1F)C1CC1 (stereo not drawn) [Compound 93] | 80 to 100% | 80 to 100% |
| > 90% | C=C(CN(C(=O)c1c(C(F)F)nn(C)c1F)C1CC1)c1ccc(C)cc1C [Compound 33] | 80 to 100% | 80 to 100% |
| > 90% | CC(C(=C(Cl)Cl)c1cccc(Cl)c1)N(C(=O)c1c(C(F)F)nn(C)c1F)C1CC1 (stereo not drawn) [Compound 169] | 80 to 100% | 80 to 100% |
| > 90% | C=C(c1c(Cl)cc(Cl)cc1Cl)C(C)N(C(=O)c1c(C(F)F)nn(C)c1F)C1CC1 (stereo not drawn) [Compound 74] | 80 to 100% | 80 to 100% |
| > 90% | Cn1nc(C(F)F)c(C(=O)N(CC(=C(Cl)Cl)c2ccccc2Br)C2CC2)c1F [Compound 132] | 80 to 100% | 80 to 100% |
| > 90% | C=C(CN(C(=O)c1c(C(F)F)nn(C)c1F)C1CC1)c1cc(C(C)(C)C)ccc1C [Compound 40] | 80 to 100% | 70 to 80% |
| > 90% | CC(C(=C(Cl)Cl)c1c(Br)cccc1Br)N(C(=O)c1c(C(F)F)nn(C)c1F)C1CC1 (stereo not drawn) [Compound 189] | 80 to 100% | 80 to 100% |
| > 90% | C=C(CN(C(=O)c1c(C(F)F)nn(C)c1F)C1CC1)c1c(Cl)cccc1Cl [Compound 18] | 80 to 100% | 80 to 100% |
| > 90% | CC(C(=C(Cl)Cl)c1c(F)cc(F)cc1F)N(C(=O)c1c(C(F)F)nn(C)c1F)C1CC1 (stereo not drawn) [Compound 182] | 80 to 100% | 80 to 100% |
| > 90% | C=C(CN(C(=O)c1c(C(F)F)nn(C)c1F)C1CC1)c1ccc(F)cc1Cl [Compound 43] | 80 to 100% | 80 to 100% |
| > 90% | C=C(c1ccc(F)cc1Cl)C(C)N(C(=O)c1c(C(F)F)nn(C)c1F)C1CC1 (stereo not drawn) [Compound 98] | 80 to 100% | 80 to 100% |

| inhibition at 10 µM (succinate dehydrogenase) | SMILES | pest or weed control at 100 µg/mL (Erysiphe graminis) | pest or weed control at 100 µg/mL (Sphaerotheca fuliginea) |
| --- | --- | --- | --- |
| > 90% | C=C(c1ccc(C(F)(F)F)cc1Cl)C(C)N(C(=O)c1c(C(F)F)nn(C)c1F)C1CC1 (stereo not drawn) [Compound 102] | 80 to 100% | 80 to 100% |
| > 90% | C=C(CN(C(=O)c1c(C(F)F)nn(C)c1F)C1CC1)c1ccc(C(F)(F)F)cc1Cl [Compound 47] | 80 to 100% | 80 to 100% |
| > 90% | C=C(c1ccc(Br)cc1Br)C(C)N(C(=O)c1c(C(F)F)nn(C)c1F)C1CC1 (stereo not drawn) [Compound 82] | 80 to 100% | 80 to 100% |
| > 90% | C=C(c1ccc(C#CC2CC2)cc1F)C(C)N(C(=O)c1c(C(F)F)nn(C)c1F)C1CC1 (stereo not drawn) [Compound 110] | 80 to 100% | 80 to 100% |
| > 90% | Cc1ccc(C(=C(Cl)Cl)C(C)N(C(=O)c2c(C(F)F)nn(C)c2F)C2CC2)c(C)c1 (stereo not drawn) [Compound 193] | 80 to 100% | 80 to 100% |
| > 90% | Cn1nc(C(F)F)c(C(=O)N(CC(=C(Cl)Cl)c2cc(Br)ccc2Br)C2CC2)c1F [Compound 135] | 80 to 100% | 80 to 100% |
| > 90% | CC(C(=C(Cl)Cl)c1cccc(S(C)(=O)=O)c1)N(C(=O)c1c(C(F)F)nn(C)c1F)C1CC1 (stereo not drawn) [Compound 213] | 80 to 100% | 80 to 100% |
| > 90% | C=C(c1cccc(C(F)(F)F)c1Cl)C(C)N(C(=O)c1c(C(F)F)nn(C)c1F)C1CC1 (stereo not drawn) [Compound 101] | 80 to 100% | 80 to 100% |
| > 90% | C=C(c1ccccc1C(F)(F)F)C(C)N(C(=O)c1c(C(F)F)nn(C)c1F)C1CC1 (stereo not drawn) [Compound 71] | 80 to 100% | 80 to 100% |
| > 90% | Cn1nc(C(F)F)c(C(=O)N(CC(=C(Cl)Cl)c2ccc(C(F)(F)F)cc2Cl)C2CC2)c1F [Compound 158] | 80 to 100% | 80 to 100% |
| > 90% | CCS(=O)(=O)c1ccc(C(CN(C(=O)c2c(C(F)F)nn(C)c2F)C2CC2)=C(Cl)Cl)cc1 [Compound 163] | 80 to 100% | 80 to 100% |
| > 90% | C=C(c1cc(S(C)(=O)=O)ccc1Cl)C(C)N(C(=O)c1c(C(F)F)nn(C)c1F)C1CC1 (stereo not drawn) [Compound 106] | 80 to 100% | 80 to 100% |
| > 90% | C=C(c1ccccc1C)C(C)N(C(=O)c1c(C(F)F)nn(C)c1F)C1CC1 (stereo not drawn) [Compound 87] | 80 to 100% | 80 to 100% |
| > 90% | Cc1ccc(C(CN(C(=O)c2c(C(F)F)nn(C)c2F)C2CC2)=C(Cl)Cl)cc1 [Compound 150] | 80 to 100% | 80 to 100% |
| > 90% | C=C(c1ccccc1S(C)(=O)=O)C(C)N(C(=O)c1c(C(F)F)nn(C)c1F)C1CC1 (stereo not drawn) [Compound 105] | 80 to 100% | 80 to 100% |
| > 90% | C=C(CN(C(=O)c1c(C(F)F)nn(C)c1F)C1CC1)c1cc(Br)ccc1Br [Compound 29] | 80 to 100% | 80 to 100% |
| > 90% | C=C(c1cc(Br)ccc1Br)C(C)N(C(=O)c1c(C(F)F)nn(C)c1F)C1CC1 (stereo not drawn) [Compound 83] | 80 to 100% | 80 to 100% |
